# Results from patent US20160256466A1, “PI3K INHIBITOR FOR TREATMENT OF RESPIRATORY DISEASE” (GLAXOSMITHKLINE INTELLECTUAL PROPERTY DEVELOPMENT LIMITED, priority 2013, published 2016).
# Structures can show the parent of a compound that is named as a salt.
# Experiments:
# [1] = tested on: S. pneumoniae strain TIGR4; assay: Streptococcus pneumoniae infection in mice, survival by defined mortality-endpoint; assay type: in vivo, C57BL/6 mice; settings: 0.2 mg/kg micronized, intranasal, twice daily for eleven days; infected intranasally with 1×10^7 CFU; compared to vehicle controls; n=60; Mantel-Cox test **p<0.005
# Description: (§1) Germ-free C57BL/6 male and female mice aged 10-12 weeks were intranasally administered with 0.2%Tween-80/saline vehicle or 0.2 mg/kg micronized 6-(1H-indol-4-yl)-4-(5-{[4-(1-methylethyl)-1-piperazinyl]methyl}-1,3-oxazol-2-yl)-1H-indazole hydrochloride in the same vehicle. Compound dosing was carried out twice daily for eleven days under anaesthesia using 3% isoflurane for induction and 2% isoflurane for maintenance. At the start of day two, and one hour after administering 6-(1H-indol-4-yl)-4-(5-{[4-(1-methylethyl)-1-piperazinyl]methyl}-1,3-oxazol-2-yl)-1H-indazole hydrochloride or vehicle, mice were anaesthetized with isoflurane as above and infected intranasally with 1×10^7 CFU of S. pneumoniae strain TIGR4. S. Pneumoniae was obtained and prepared as described previously (see, for example, Infect. Immun. December 2011; 79(12): 4965-4976) and given in an inoculum of 50 μl PBS per mouse. Mice were monitored three times daily and assessed using a defined mortality-endpoint, where mice displaying three or more of the limiting clinical signs stated in Home Office Project Licence PPL 70/7661 were culled.
# lung gene expression = assay: Affymetrix GeneChip lung gene expression in S. Pneumoniae-infected mice; assay type: in vivo, C57BL/6 mice; settings: 0.2 mg/kg intranasal twice daily; lungs at various timepoints after S. Pneumoniae-infection; genes significantly altered (minimum 1.5 fold-change; p<0.05) compared to vehicle controls; n=6
# Description: as §1
# Each band corresponds to a single probe and intensity signifies fold change, as indicated in the legend.
compound,measurement,setting,value
"CC(C)N1CCN(Cc2cnc(-c3cc(-c4cccc5[nH]ccc45)cc4[nH]ncc34)o2)CC1 [6-(1H-Indol-4-yl)-4-(5-{[4-(1-methylethyl)-1-piperazinyl]methyl}-1,3-oxazol-2-yl)-1H-indazole hydrochloride]",defined mortality-endpoint (percentage survival),[1],reduced a defined mortality-endpoint
same,lung gene expression,lung gene expression,altered lung gene expression
